Each structure is given as a SMILES string. Entries after “also recorded” stand apart in the source; their conditions may differ.

Experimental findings from patent US20210346359A1, “Use of CFTR Modulators For Treating Cerebrovascular Conditions” (Qanatpharma AG, priority 2018, published 2021) are described below.

The test system of data set [1] is posterior cerebral arteries. The experiment in a line: Myogenic tone of isolated posterior cerebral arteries after in vivo treatment. Further details: species or system mouse. The text has this:
Myocardial infarction: HF was induced by surgical ligation of the left anterior descending coronary artery (3). Briefly, mice were anaesthetized with isoflurane, intubated with a 20-gauge angiocatheter and ventilated with room air. Under sterile conditions, the thorax and pericardium were opened, and the left anterior descending coronary artery was permanently ligated with 7-0 silk suture (Deknatel: Fall River, USA). In sham-operated controls, the thorax and pericardium were opened, but the left anterior descending coronary artery was not ligated. Following the procedure, the chest was closed and the mice were extubated upon spontaneous respiration. Posterior cerebral arteries (PCAs) were isolated 4-6 weeks post-infarction. […]
Myogenic responses were elicited by step-wise 20 mmHg increases in transmural pressure from 20 mmHg to 80 mmHg (olfactory arteries) or 100 mmHg (posterior cerebral arteries and cremaster skeletal muscle resistance arteries). At each pressure step, vessel diameter (diaactive) was measured once a steady state was reached (5 min). Vessels requiring treatment (e.g., CFTR(inh)-172) were incubated with the reagent in MOPS for 30 min and myogenic responses were then assessed in the presence of that reagent. Following completion of all diaactive measurements, MOPS buffer was replaced with a Ca^2+-free version and maximal passive diameter (diamax) was recorded at each pressure step.
(§1) Myogenic tone was calculated as the percent constriction in relation to the maximal diameter at each respective transmural pressure: tone (% of diamax)=[(diamax−diaactive)/diamax]×100, where diaactive is the vessel diameter in MOPS containing Ca^2+ and diamax is the diameter in Ca^2+-free MOPS. Analyses of vasomotor responses to phenylephrine used the same calculation, only in this case, diaactive represents the vessel diameter at steady state following application of the given agent and diamax represents the maximal diameter measured under Ca^2+-free conditions.

Data set [2] deals with posterior cerebral arteries. The experiment in a line: Phenylephrine responses of isolated posterior cerebral arteries. The class given is in vivo, mouse. Here is the method: Isolation and functional assessment of resistance arteries: Mouse olfactory (a first branch of the anterior cerebral artery) and PCAs were carefully dissected, cannulated onto micropipettes, stretched to their in vivo lengths and pressurized to 45 mmHg, as previously described (3,6); mouse skeletal muscle resistance arteries were dissected from the cremaster muscle, cannulated and pressurized to 60 mmHg. All functional experiments were conducted in 3-morpholinopropanesulfonic acid (MOPS) buffered saline at 37° C. with no perfusion. Vasomotor responses to phenylephrine (5 μmol/L for posterior cerebral arteries, 10 μmol/L for cremaster skeletal muscle arteries) provided an assessment of vessel viability at the beginning and end of each experiment. Arteries failing to show ≥25% constriction to phenylephrine were excluded.
as §1

A short description of data set [3]: Global hemodynamic parameters (CO, TPR, MAP) in heart failure mice. Type of data set: in vivo, mouse. As to conditions: HF mice, 3 mg/kg daily for 2 days. As for the experimental part: As previously described (9-11), echocardiographic measurements were collected with a 30 MHz mechanical sector transducer (Vevo 770; Visual Sonics, Toronto, Canada) in conjunction with the mean arterial pressure (MAP) measurements (Millar SPR-671 micro-tip mouse pressure catheter; Inter V Medical Inc., Montreal, Canada). The aortic flow velocity-time integral (VTI) was measured using pulse wave Doppler just above the aortic root. The aortic cross-sectional area (CSA) was calculated from the aortic root dimension (ARD): CSA=π(ARD/2)2. Stroke volume (SV), CO and TPR were calculated as: SV=CSA×VTI; CO=SV×HR; TPR=MAP/CO.
Myocardial infarction: HF was induced by surgical ligation of the left anterior descending coronary artery (3). Briefly, mice were anaesthetized with isoflurane, intubated with a 20-gauge angiocatheter and ventilated with room air. Under sterile conditions, the thorax and pericardium were opened, and the left anterior descending coronary artery was permanently ligated with 7-0 silk suture (Deknatel: Fall River, USA). In sham-operated controls, the thorax and pericardium were opened, but the left anterior descending coronary artery was not ligated. Following the procedure, the chest was closed and the mice were extubated upon spontaneous respiration. Posterior cerebral arteries (PCAs) were isolated 4-6 weeks post-infarction.

Another data set has as its system mice with heart failure. Kind of data set: MRI T2 mapping of cerebral edema in heart failure mice. Type of data set: in vivo, mouse. Conditions: HF mice, 3 mg/kg daily for 2 days. Here is the method:
Magnetic resonance imaging-based edema measurement: Edema was assessed by quantitative T2 mapping (12), using a 7 Tesla micro-MRI system (Bruker Corporation Biospec 70/30 USR; Ettlingen, Germany). The T2 mapping acquisition generated quantitative T2 maps in 9 contiguous 2D axial slices, with 1 mm thickness, covering the volume from the fore-brain through to the hind-brain. T2 maps were generated from T2-weighted images at echo times from 12 to 384 ms, using in-line Bruker software, via linear regression of the logarithmically-transformed signal magnitudes and the echo times on a per voxel basis. The T2 values were extracted using MIPAV software, using manually drawn regions-of-interest placed within the fore-, middle- and hind-brain T2 maps.

Another data set addresses CFTR (Mus musculus, UniProt P26361). Kind of data set: CFTR protein in cerebral arteries of mice with heart failure. The class given is in vivo. Further details: Cerebral artery lysates were prepared by grinding artery samples in lysis buffer; from tissue; host or cells: cerebral arteries of male wild-type C57BL/6N mice (naïve, heart failure or subarachnoid hemorrhage models). Conditions: 6 weeks post-ligation, 3 mg/kg daily for 2 days. Here is the method: Western blots for CFTR were completed as previously described (12, 18). Cerebral artery lysates were prepared by grinding artery samples in lysis buffer containing 50 mM Tris (pH 7.3), 150 mM NaCl, 2 mM […], 0.1% Triton-X-100, 0.1% […] and protease inhibitors; the same lysis buffer was used to prepare cell culture lysates. Following lysis, the samples were centrifuged (10 minutes at 13,500 g; at 4° C.) to remove insoluble material. Immediately prior to polyacrylamide electrophoresis, additional SDS (to 2% final concentration), glycerol (to 2% final concentration), β-mercaptoethanol (to 2% final concentration) and dithiothreitol (2 mM final concentration) were added. Proteins were separated electrophoretically on 7% acrylamide gels and transferred onto polyvinylidene difluoride (PVDF) membranes. […]
The primary antibodies were conjugated with either peroxidase-labeled donkey anti-rabbit IgG (GE Healthcare Amersham (Piscataway, USA) cat# NA934) or peroxidase-labeled goat anti-mouse IgG (GE Healthcare Amersham cat# NA931) secondary antibodies. […] Developed films were evaluated densitometrically using “Image J” software (freely available from the NIH); digital images were evaluated with Image Lab software (Bio-Rad). […]

Chain of CFTR (P26361 whole entry): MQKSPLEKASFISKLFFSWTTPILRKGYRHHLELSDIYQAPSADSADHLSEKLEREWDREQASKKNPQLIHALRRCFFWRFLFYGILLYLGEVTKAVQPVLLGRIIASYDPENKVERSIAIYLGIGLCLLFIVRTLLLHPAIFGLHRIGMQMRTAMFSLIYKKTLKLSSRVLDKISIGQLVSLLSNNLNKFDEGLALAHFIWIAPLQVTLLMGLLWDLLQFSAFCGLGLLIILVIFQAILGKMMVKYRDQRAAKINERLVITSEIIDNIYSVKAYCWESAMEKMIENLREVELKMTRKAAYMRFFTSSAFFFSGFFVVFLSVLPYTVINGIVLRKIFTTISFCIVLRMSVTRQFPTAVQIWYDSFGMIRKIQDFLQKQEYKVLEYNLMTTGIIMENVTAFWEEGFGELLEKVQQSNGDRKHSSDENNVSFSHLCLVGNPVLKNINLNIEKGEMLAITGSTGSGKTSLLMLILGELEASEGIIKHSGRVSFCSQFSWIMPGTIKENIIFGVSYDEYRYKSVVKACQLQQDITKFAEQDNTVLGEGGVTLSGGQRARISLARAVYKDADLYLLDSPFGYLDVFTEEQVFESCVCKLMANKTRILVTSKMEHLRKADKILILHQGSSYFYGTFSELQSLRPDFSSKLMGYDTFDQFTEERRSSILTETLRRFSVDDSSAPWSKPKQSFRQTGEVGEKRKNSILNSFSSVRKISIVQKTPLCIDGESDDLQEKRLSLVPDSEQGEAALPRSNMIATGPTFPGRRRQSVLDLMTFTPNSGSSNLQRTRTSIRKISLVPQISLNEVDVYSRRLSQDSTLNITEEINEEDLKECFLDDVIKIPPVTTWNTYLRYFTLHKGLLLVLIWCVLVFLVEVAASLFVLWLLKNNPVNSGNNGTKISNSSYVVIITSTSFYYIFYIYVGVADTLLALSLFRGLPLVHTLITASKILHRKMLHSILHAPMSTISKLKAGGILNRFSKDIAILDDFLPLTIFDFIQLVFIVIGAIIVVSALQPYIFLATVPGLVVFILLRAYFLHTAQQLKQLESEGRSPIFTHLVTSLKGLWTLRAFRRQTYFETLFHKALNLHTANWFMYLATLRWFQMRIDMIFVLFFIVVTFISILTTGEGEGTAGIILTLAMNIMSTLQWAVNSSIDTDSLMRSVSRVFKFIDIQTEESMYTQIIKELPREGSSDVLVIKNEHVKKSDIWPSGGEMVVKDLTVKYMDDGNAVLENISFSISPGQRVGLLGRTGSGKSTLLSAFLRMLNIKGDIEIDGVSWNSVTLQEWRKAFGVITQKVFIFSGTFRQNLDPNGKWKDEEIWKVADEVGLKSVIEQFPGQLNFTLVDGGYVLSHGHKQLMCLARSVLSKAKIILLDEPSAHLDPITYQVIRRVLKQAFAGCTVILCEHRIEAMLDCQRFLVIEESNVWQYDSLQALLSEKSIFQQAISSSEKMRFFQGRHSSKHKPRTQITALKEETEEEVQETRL

For `O=C(Nc1ncc(C(c2ccccc2Cl)N2CCC(O)C2)s1)C1(c2ccc3c(c2)OCO3)CC1` (stereo not shown) [C18, 1-(benzo[d][1,3]dioxol-5-yl)-N-(5-((2-chlorophenyl)(3-hydroxypyrrolidin-1-yl)methyl)thiazol-2-yl)cyclopropanecarboxamide], the “posterior cerebral artery myogenic tone” value in data set [1] (arteries from CFTR knockout mice, in vivo 3 mg/kg daily for 2 days) was “not susceptible; also recorded: not observed”; in data set [1] (arteries from HF mice, in vivo 3 mg/kg daily for 2 days) it was “normalizes; also recorded: reduces”; in data set [1] (arteries from sham-operated mice, in vivo 3 mg/kg i.p. daily for 2 days) it was “does not affect; also recorded: does not alter”. The phenylephrine dose-response relationship entry in data set [2] (posterior cerebral arteries from CFTR knockout mice, 3 mg/kg i.p. daily for 2 days, 3 mg/kg) is “not affected; also recorded: does not alter”. For the same molecule, the “phenylephrine dose-response relationship normalized to basal tone, HF vs HF+C18” value in data set [2] (posterior cerebral arteries from HF mice, 3 mg/kg i.p. daily for 2 days, 3 mg/kg) is “curves overlap; also recorded: not significantly different”. Moreover, in data set [2] (posterior cerebral arteries from HF mice, 3 mg/kg i.p. daily for 2 days, not normalized, 3 mg/kg), the “phenylephrine dose-response relationship (tone), HF vs HF+C18” value is listed as “significant difference”. For the same molecule, the phenylephrine responses result in data set [2] (posterior cerebral arteries from sham-operated mice, 3 mg/kg i.p. daily for 2 days, 3 mg/kg) was “does not affect; also recorded: does not alter”. Besides, the “log EC50 of phenylephrine response” value in data set [2] (posterior cerebral arteries, HF+C18 group, log scale) was −5.94±0.21. Besides, in data set [3], the “cardiac injury induced by left anterior descending coronary artery ligation” value is reported as “does not ameliorate”. In data set [3], the “mean arterial pressure (MAP)” value is given as “no effect”. Also, the “total peripheral resistance (TPR)” value in data set [3] (3 mg/kg) is listed as “no effect; also recorded: lack of effect”. In the data set on mice with heart failure, the “cerebral edema (T2 relaxation times)” value was “neither HF nor C18 treatment in the context of HF induces evident edema; also recorded: does not induce edema; also recorded: Neither HF nor C18 treatment in HF mice induces an alteration”. For the same molecule, the “cerebral artery CFTR protein expression in HF” value on CFTR is listed as “restores; also recorded: eliminates this reduction”.
